test system: secretion levels of IL-6 in PBMC cells; assay: Inhibition of R848-induced IL-6 secretion in PBMC (IL-6 ELISA); assay type: cell-based; conditions: human PBMC, 20 h compound pre-incubation, 24 h stimulation
Method: This experiment was carried out in RPMI 1640 medium containing 10% FBS/1% penicillin/streptomycin, with each of the compounds at an initial test concentration of 1 μM. The compound DMSO was dissolved to form a stock solution, which was gradiently diluted 4-fold with the culture medium to a 4× working solution concentration. The diluted solution was added to a 96-well plate with 50 μL per well. PBMC (batch No.: HPP20062307, Sichuan Hope Bio-tech Co., Ltd.) cells were counted, and diluted to a concentration of 2×10^6/mL. The diluted cells were added to the above compound-containing 96-well plate with 150 μL per well, fully mixed, and incubated in an incubator with 5% CO2 at 37° C. for 20 h. Then, R848 was further added until a final concentration of […], and the cells were further incubated in the incubator with 5% CO2 at 37° C. for additional 24 h. Then, after centrifugation at 2,000 rpm for 4 min, the supernatant was diluted 110×, and detected using an IL-6 ELISA kit. An OD450 value was read, and converted to an IL-6 concentration based on a standard curve, to calculate an IC50 value by fitting a dose-effect curve using GraphPad 5.0.

Compound	IC50
COc1cc2nn([C@H]3CC[C@H](CN4CCN(c5cccc6c5c(C)nn6C5CCC(=O)NC5=O)CC4)CC3)cc2cc1NC(=O)c1cnn2ccc(N3CCOCC3)nc12 (stereo partly shown) [TM-28]	23.3 nM
COc1cc2nn([C@H]3CC[C@H](CN4CCC(c5cccc6c5c(C)nn6C5CCC(=O)NC5=O)CC4)CC3)cc2cc1NC(=O)c1cnn2ccc(N3CCOCC3)nc12 (stereo partly shown) [TM-27]	46.8 nM
Cc1nn(C2CCC(=O)NC2=O)c2cccc(N3CC4CN(C[C@H]5CC[C@H](N6Cc7cc(NC(=O)c8cnn9cccnc89)c(N8CCOCC8)cc7C6=O)CC5)CC4C3)c12 (stereo partly shown) [TM-59]	2.21 nM
Cc1nn(C2CCC(=O)NC2=O)c2cccc(N3CCN(C[C@H]4CC[C@H](n5cc6cc(NC(=O)c7cnn8cccnc78)c(N7C[C@H]8C[C@@H]7CO8)cc6n5)CC4)CC3)c12 (stereo partly shown) [TM-61]	3.01 nM
COc1cc2nn([C@H]3CC[C@H](CN4CCN(c5cccc6c5c(C)nn6C5CCC(=O)NC5=O)CC4)CC3)cc2cc1NC(=O)c1cccc(C(F)(F)F)n1 (stereo partly shown) [TM-29]	56.3 nM
Cc1nn(C2CCC(=O)NC2=O)c2cccc(N3CC4CN(C[C@H]5CC[C@H](n6cc7cc(NC(=O)c8cnn9cccnc89)c(N8C[C@@H]9C[C@H]8CO9)cc7n6)CC5)CC4C3)c12 (stereo partly shown) [TM-46]	46.8 nM
Cc1nn(C2CCC(=O)NC2=O)c2cccc(N3CCN(C[C@H]4CC[C@H](N5Cc6cc(NC(=O)c7cnn8cccnc78)c(N7CCOCC7)cc6C5=O)CC4)CC3)c12 (stereo partly shown) [TM-58]	3.57 nM

test system: secretion levels of IL-6 in PBMC cells; assay: Inhibition of LPS+IL-1β-induced IL-6 secretion in PBMC (IL-6 ELISA); assay type: cell-based; conditions: human PBMC, 24 h compound pre-incubation, 20 h stimulation
Method: This experiment was carried out in RPMI 1640 medium containing 10% FBS/1% penicillin/streptomycin, with each of the compounds at an initial test concentration of 1 μM. The compound DMSO was dissolved to form a stock solution, which was gradiently diluted 5-fold with the culture medium to a 4× working solution concentration. The diluted solution was added to a 96-well plate with 50 μL per well. PBMC (batch No.: HPP20062307, Sichuan Hope Bio-tech Co., Ltd.) cells were counted, and diluted to a concentration of 2×10^6/mL. The diluted cells were added to the above compound-containing 96-well plate with 150 μL per well, fully mixed, and incubated in an incubator with 5% CO2 at 37° C. for 24 h. Then, LPS and […] were further added to final concentrations of 10 ng/mL and 20 ng/mL, respectively, and the cells were further incubated in the incubator with 5% CO2 at 37° C. for 20 h. Then, after centrifugation at 2,000 rpm for 4 min, the supernatant was diluted 110×, and detected using an IL-6 ELISA kit. An OD450 value was read, and converted to an IL-6 concentration based on a standard curve, to calculate an IC50 value by fitting a dose-effect curve using GraphPad 5.0.

Compound	IC50
Cc1nn(C2CCC(=O)NC2=O)c2cccc(N3CCC(CN4CCC(n5cc6cc(NC(=O)c7cnn8cccnc78)c(N(C)C)cc6n5)CC4)CC3)c12 (stereo not shown) [TM-71]	24.9 nM
Cc1nn(C2CCC(=O)NC2=O)c2cccc(N3CCN(C[C@H]4CC[C@H](n5cc6cc(NC(=O)c7cnn8cccnc78)c(C(F)F)cc6n5)CC4)CC3)c12 (stereo partly shown) [TM-49]	16.5 nM
COc1cc2nn([C@H]3CC[C@H](CN4CCN(c5cccc6c5c(C)nn6C5CCC(=O)NC5=O)CC4)CC3)cc2cc1NC(=O)c1cccc(C)n1 (stereo partly shown) [TM-32]	22.2 nM
Cc1nn(C2CCC(=O)NC2=O)c2cccc(N3CCC(CN4CCC(N5Cc6cc(NC(=O)c7cnn8cccnc78)c(N7CCO[C@H](C)C7)cc6C5=O)CC4)CC3)c12 (stereo partly shown) [TM-69]	22.9 nM
COc1cc2nn([C@H]3CC[C@H](CN4CCC(c5cccc6c5c(C)nn6C5CCC(=O)NC5=O)CC4)CC3)cc2cc1NC(=O)c1cnn2ccc(N3CCOCC3)nc12 (stereo partly shown) [TM-27]	9.53 nM
Cc1nn(C2CCC(=O)NC2=O)c2cccc(N3CCN(C[C@H]4CC[C@H](n5cc6cc(NC(=O)c7cnn8cccnc78)c(N7C[C@@H]8C[C@H]7CO8)cc6n5)CC4)CC3)c12 (stereo partly shown) [TM-45]	5.48 nM
COc1cc2nn([C@H]3CC[C@H](CN4CC5CN(c6ccc7c(c6)c(C)nn7C6CCC(=O)NC6=O)CC5C4)CC3)cc2cc1NC(=O)c1cccc(C(F)(F)F)n1 (stereo partly shown) [TM-39]	115 nM
Cc1nn(C2CCC(=O)NC2=O)c2cccc(N3CCC(CN4CCC(n5cc6cc(NC(=O)c7cnn8cccnc78)c(N7CCOCC7)cc6n5)CC4)CC3)c12 (stereo not shown) [TM-51]	9.15 nM
Cc1nn(C2CCC(=O)NC2=O)c2ccnc(N3CCN(C[C@H]4CC[C@H](n5cc6cc(NC(=O)c7cnn8cccnc78)c(N(C)C)cc6n5)CC4)CC3)c12 (stereo partly shown) [TM-103]	0.72 nM
Cc1nn(C2CCC(=O)NC2=O)c2cccc(N3CCC(CN4CCC(N5Cc6cc(NC(=O)c7cnn8cccnc78)c(N7CCCOCC7)cc6C5=O)CC4)CC3)c12 (stereo not shown) [TM-68]	3.23 nM
Cc1nn(C2CCC(=O)NC2=O)c2cccc(N3CCN(C[C@H]4CC[C@H](n5cc6cc(NC(=O)c7cnn8cccnc78)c(N7CCCOCC7)cc6n5)CC4)CC3)c12 (stereo partly shown) [TM-79]	39 nM
Cc1nn(C2CCC(=O)NC2=O)c2cccc(N3CCC(CN4CCC(N5Cc6cc(NC(=O)c7cnn8cccnc78)c(N7CCOCC7)cc6C5=O)CC4)CC3)c12 (stereo not shown) [TM-67]	52.8 nM
Cc1nn(C2CCC(=O)NC2=O)c2cccc(N3CCC(CN4CCC(n5cc6cc(NC(=O)c7cnn8cccnc78)c(N7CCO[C@H](C)C7)cc6n5)CC4)CC3)c12 (stereo partly shown) [TM-72]	6.82 nM
Cc1nn(C2CCC(=O)NC2=O)c2cccc(N3CC4CN(C[C@H]5CC[C@H](N6Cc7cc(NC(=O)c8cnn9cccnc89)c(N8CCOCC8)cc7C6=O)CC5)CC4C3)c12 (stereo partly shown) [TM-59]	3.57 nM
Cc1nn(C2CCC(=O)NC2=O)c2cccc(N3CCN(C[C@H]4CC[C@H](n5cc6cc(NC(=O)c7cnn8cccnc78)c(N7CCOC8(CC8)C7)cc6n5)CC4)CC3)c12 (stereo partly shown) [TM-47]	45.8 nM
Cc1nn(C2CCC(=O)NC2=O)c2cccc(N3CCN(C[C@H]4CC[C@H](n5cc6cc(NC(=O)c7cnn8cccnc78)c(N7CCO[C@@H](C)C7)cc6n5)CC4)CC3)c12 (stereo partly shown) [TM-52]	10.5 nM
Cc1nn(C2CCC(=O)NC2=O)c2cccc(N3CCN(C[C@H]4CC[C@H](n5cc6cc(NC(=O)c7cnn8cccnc78)c(N7CCOC[C@H]7C)cc6n5)CC4)CC3)c12 (stereo partly shown) [TM-73]	43.8 nM
COc1cc2nn([C@H]3CC[C@H](CN4CC5CN(c6cccc7c6c(C)nn7C6CCC(=O)NC6=O)CC5C4)CC3)cc2cc1NC(=O)c1cccc(C(F)(F)F)n1 (stereo partly shown) [TM-36]	4.99 nM

Compound	IC50
Cc1nn(C2CCC(=O)NC2=O)c2cccc(N3CCN(C[C@H]4CC[C@H](n5cc6cc(NC(=O)c7cnn8cccnc78)c(N7C[C@H]8C[C@@H]7CO8)cc6n5)CC4)CC3)c12 (stereo partly shown) [TM-61]	7.06 nM
Cc1nn(C2CCC(=O)NC2=O)c2cccc(N3CCN(C[C@H]4CC[C@H](n5cc6cc(NC(=O)c7cnn8cccnc78)c(N(C)C)cc6n5)CC4)CC3)c12 (stereo partly shown) [TM-70]	1.18 nM
Cc1nn(C2CCC(=O)NC2=O)c2cccc(N3CCN(C[C@H]4CC[C@H](N5Cc6cc(NC(=O)c7cnn8cccnc78)c(N7CCO[C@H](C)C7)cc6C5=O)CC4)CC3)c12 (stereo partly shown) [TM-63]	0.9 nM
Cc1nn(C2CCC(=O)NC2=O)c2cccc(N3CC4CN(C[C@H]5CC[C@H](n6cc7cc(NC(=O)c8cnn9cccnc89)c(N8CCOC9(CC9)C8)cc7n6)CC5)CC4C3)c12 (stereo partly shown) [TM-48]	47.8 nM
COc1cc2nn([C@H]3CC[C@H](CN4CCN(c5cccc6c5c(C)nn6C5CCC(=O)NC5=O)CC4)CC3)cc2cc1NC(=O)c1cnn2cccnc12 (stereo partly shown) [TM-30]	3.69 nM
Cc1nn(C2CCC(=O)NC2=O)c2nccc(N3CCC4(CC3)CN(CC3CCC(n5cc6cc(NC(=O)c7cnn8cccnc78)c(N(C)C)cc6n5)CC3)C4)c12 (stereo not shown) [TM-114]	4.79 nM
Cc1nn(C2CCC(=O)NC2=O)c2cccc(N3CCN(C[C@H]4CC[C@H](N5Cc6cc(NC(=O)c7cnn8cccnc78)c(N7CCOCC7)cc6C5=O)CC4)CC3)c12 (stereo partly shown) [TM-58]	3.53 nM
Cc1nn(C2CCC(=O)NC2=O)c2cccc(N3CCN(C[C@H]4CC[C@H](N5Cc6cc(NC(=O)c7cnn8cccnc78)c(N(C)C)cc6C5=O)CC4)CC3)c12 (stereo partly shown) [TM-65]	7.15 nM
COc1cc2nn([C@H]3CC[C@H](CN4CC5CN(c6cccc7c6c(C)nn7C6CCC(=O)NC6=O)CC5C4)CC3)cc2cc1NC(=O)c1cnn2cccnc12 (stereo partly shown) [TM-37]	4.99 nM
Cc1nn(C2CCC(=O)NC2=O)c2cccc(N3CCC(CN4CCC(n5cc6cc(NC(=O)c7cnn8cccnc78)c(N7CCCOCC7)cc6n5)CC4)CC3)c12 (stereo not shown) [TM-82]	36.5 nM
Cc1nn(C2CCC(=O)NC2=O)c2cccc(N3CCN(C[C@H]4CC[C@H](n5cc6cc(NC(=O)c7cnn8cccnc78)c(N7CCOC[C@@H]7C)cc6n5)CC4)CC3)c12 (stereo partly shown) [TM-74]	29.4 nM
Cc1nn(C2CCC(=O)NC2=O)c2cccc(C3CCN(CC4CCC(n5cc6cc(NC(=O)c7cnn8cccnc78)c(N7CCOCC7)cc6n5)CC4)CC3)c12 (stereo not shown) [TM-26]	12.2 nM
COc1cc2nn([C@H]3CC[C@H](CN4CC5CN(c6cccc7c6c(C)nn7C6CCC(=O)NC6=O)CC5C4)CC3)cc2cc1NC(=O)c1cccc(C)n1 (stereo partly shown) [TM-35]	29.5 nM
Cc1nn(C2CCC(=O)NC2=O)c2ccc(N3CC4CN(C[C@H]5CC[C@H](n6cc7cc(NC(=O)c8cnn9cccnc89)c(N8CCOCC8)cc7n6)CC5)CC4C3)cc12 (stereo partly shown) [TM-40]	138 nM
Cc1nn(C2CCC(=O)NC2=O)c2cccc(N3CC4CN(C[C@H]5CC[C@H](n6cc7cc(NC(=O)c8cnn9cccnc89)c(C(F)F)cc7n6)CC5)CC4C3)c12 (stereo partly shown) [TM-50]	3.81 nM
Cc1nn(C2CCC(=O)NC2=O)c2cccc(OC3CCN(C[C@H]4CC[C@H](N5Cc6cc(NC(=O)c7cnn8cccnc78)c(N7CCOCC7)cc6C5=O)CC4)CC3)c12 (stereo partly shown) [TM-60]	4.4 nM
Cc1nn(C2CCC(=O)NC2=O)c2cccc(N3CC4CN(C[C@H]5CC[C@H](n6cc7cc(NC(=O)c8cnn9cccnc89)c(N8C[C@H]9C[C@@H]8CO9)cc7n6)CC5)CC4C3)c12 (stereo partly shown) [TM-62]	11.9 nM
Cc1nn(C2CCC(=O)NC2=O)c2cccc(N3CC4CN(C[C@H]5CC[C@H](n6cc7cc(NC(=O)c8cnn9cccnc89)c(N8CCO[C@@H](C)C8)cc7n6)CC5)CC4C3)c12 (stereo partly shown) [TM-53]	38.5 nM

From patent publication US20260146044A1, “AROMATIC COMPOUND, PHARMACEUTICAL COMPOSITION CONTAINING SAME, AND USE THEREOF” (Increland, priority 2023, published 2026)
